What was measured:
Assay type in all cases: biochemical
[1] = biological target: TYK2 (Homo sapiens, UniProt P29597); assay: JAK/TYK2 assay (Kinase Glo luminescence): Tyk2 kinase assay; settings: 9 nM enzyme, 2 uM ATP, 30 uM IRS-1, 1 hr; read-out: Tyk2 kinase assay: IC50 Geomean
Description: (§1) Example A: JAK/TYK2 Assay 10 mM test compound stock or 1 mM control compound stock (tofocitinib, ruxolitinib or staurosporine) in DMSO was diluted to 0.4 mM in DMSO. A 3-fold series dilution was then performed in DMSO to generate 10 different compound concentrations. The assay was carried out in 384-well white plate. 0.5 μL of 40× compound DMSO solution at different concentrations was mixed with 10 uL 2× enzyme prepared in reaction buffer (20 mM HEPES, 10 mM MgCl2, 0.01% Tween, 1 mM DTT, pH 7.5). 10 uL 2× substrate mixture prepared in reaction buffer was then added to start the reaction. A short spin was done to settle down all solutions to the bottom of the plate. Final concentrations of test compound in the reaction mixture were 10000, 3333, 1111, 370, 123, 41.2, 13.7, 4.57, 1.52 and 0.51 nM, Concentrations of control compound were ten times less. Enzymatic reaction was conducted at 25° C. for 1-2 hours. 10 uL of Kinase Glo Reagents was added to stop the reaction and generate the luminescent signal which was measured using Envision. Luminescence signal was inversely related to kinase activity. […] The mixture without any compound was the positive control. [table]

[2] = biological target: T1, JAK3 (Homo sapiens, UniProt P52333); assay: JAK/TYK2 assay (Kinase Glo luminescence): Jak3 kinase assay; settings: 1.5 nM enzyme, 2 uM ATP, 4 uM pEY, 1 hr; read-out: Jak3 kinase assay: IC50 Geomean
T1 sequence (P52333 1-1124): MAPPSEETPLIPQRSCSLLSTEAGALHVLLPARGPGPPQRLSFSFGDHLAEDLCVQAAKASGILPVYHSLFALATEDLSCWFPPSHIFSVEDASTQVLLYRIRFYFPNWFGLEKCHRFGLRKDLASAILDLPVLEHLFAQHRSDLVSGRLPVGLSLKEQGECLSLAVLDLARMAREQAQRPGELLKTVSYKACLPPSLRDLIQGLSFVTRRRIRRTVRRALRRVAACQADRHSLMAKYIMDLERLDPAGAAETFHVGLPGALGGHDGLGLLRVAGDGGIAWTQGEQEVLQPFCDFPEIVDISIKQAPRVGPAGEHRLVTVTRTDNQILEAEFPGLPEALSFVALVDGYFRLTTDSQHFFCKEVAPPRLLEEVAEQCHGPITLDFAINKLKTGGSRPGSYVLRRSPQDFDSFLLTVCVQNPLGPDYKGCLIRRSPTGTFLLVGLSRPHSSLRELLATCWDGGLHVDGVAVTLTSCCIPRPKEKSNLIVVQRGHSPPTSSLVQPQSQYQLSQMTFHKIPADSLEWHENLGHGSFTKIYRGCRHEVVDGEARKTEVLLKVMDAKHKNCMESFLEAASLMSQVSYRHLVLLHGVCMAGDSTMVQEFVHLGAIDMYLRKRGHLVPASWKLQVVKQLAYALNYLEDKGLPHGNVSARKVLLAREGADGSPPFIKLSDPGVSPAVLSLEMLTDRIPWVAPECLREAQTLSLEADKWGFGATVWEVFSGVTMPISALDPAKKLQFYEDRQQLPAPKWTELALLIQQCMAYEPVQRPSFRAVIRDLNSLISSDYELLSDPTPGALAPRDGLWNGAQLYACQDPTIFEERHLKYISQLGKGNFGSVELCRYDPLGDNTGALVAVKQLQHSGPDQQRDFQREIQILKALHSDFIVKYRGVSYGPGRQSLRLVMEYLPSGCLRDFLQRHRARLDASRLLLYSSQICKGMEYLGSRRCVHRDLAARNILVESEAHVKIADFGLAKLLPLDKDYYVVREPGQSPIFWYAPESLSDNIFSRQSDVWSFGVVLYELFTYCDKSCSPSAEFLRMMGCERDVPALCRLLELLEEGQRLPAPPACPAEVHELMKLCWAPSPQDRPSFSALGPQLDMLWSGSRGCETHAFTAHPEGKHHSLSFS
Description: as §1

[3] = biological target: JAK1 (Homo sapiens, UniProt P23458); assay: JAK/TYK2 assay (Kinase Glo luminescence): Jak1 kinase assay; settings: 7.5 nM enzyme, 2 uM ATP, 30 uM IRS-1, 1 hr
Sequence of JAK1 (P23458 whole entry, species assumed): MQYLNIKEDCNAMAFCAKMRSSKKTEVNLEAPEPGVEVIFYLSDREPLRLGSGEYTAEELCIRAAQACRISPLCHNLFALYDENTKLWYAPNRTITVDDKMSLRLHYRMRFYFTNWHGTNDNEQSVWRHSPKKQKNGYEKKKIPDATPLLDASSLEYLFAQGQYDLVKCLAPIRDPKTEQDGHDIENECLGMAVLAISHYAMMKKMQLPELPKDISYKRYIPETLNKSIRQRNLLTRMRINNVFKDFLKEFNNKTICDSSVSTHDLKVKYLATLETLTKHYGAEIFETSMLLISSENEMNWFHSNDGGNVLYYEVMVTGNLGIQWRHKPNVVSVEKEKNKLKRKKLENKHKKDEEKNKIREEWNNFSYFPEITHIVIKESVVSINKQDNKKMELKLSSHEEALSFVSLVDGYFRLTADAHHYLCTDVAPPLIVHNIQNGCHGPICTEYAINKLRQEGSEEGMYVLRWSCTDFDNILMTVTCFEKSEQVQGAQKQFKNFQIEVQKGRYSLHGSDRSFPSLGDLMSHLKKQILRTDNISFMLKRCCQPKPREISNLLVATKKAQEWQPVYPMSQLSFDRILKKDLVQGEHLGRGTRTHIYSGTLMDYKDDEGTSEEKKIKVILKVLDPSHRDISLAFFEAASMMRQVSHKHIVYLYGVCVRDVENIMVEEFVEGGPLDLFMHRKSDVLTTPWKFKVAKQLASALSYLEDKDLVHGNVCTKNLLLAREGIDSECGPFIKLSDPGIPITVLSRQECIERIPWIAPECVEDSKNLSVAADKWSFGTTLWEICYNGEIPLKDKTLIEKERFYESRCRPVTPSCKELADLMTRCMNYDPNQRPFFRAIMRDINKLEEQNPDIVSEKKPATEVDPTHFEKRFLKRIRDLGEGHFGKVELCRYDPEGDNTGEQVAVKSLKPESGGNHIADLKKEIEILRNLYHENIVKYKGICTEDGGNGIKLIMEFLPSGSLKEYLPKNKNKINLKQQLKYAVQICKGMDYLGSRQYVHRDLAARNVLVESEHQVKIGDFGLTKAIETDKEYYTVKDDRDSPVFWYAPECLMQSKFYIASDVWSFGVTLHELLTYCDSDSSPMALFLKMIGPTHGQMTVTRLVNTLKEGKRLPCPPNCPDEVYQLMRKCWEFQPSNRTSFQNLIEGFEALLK
Description: as §1

[4] = biological target: JAK2 (Homo sapiens, UniProt O60674); assay: JAK/TYK2 assay (Kinase Glo luminescence): Jak2 kinase assay; settings: 0.8 nM enzyme, 2 uM ATP, 4 uM pEY, 1 hr; read-out: Jak2 kinase assay: IC50 Geomean
Sequence of JAK2 (O60674 whole entry, species assumed): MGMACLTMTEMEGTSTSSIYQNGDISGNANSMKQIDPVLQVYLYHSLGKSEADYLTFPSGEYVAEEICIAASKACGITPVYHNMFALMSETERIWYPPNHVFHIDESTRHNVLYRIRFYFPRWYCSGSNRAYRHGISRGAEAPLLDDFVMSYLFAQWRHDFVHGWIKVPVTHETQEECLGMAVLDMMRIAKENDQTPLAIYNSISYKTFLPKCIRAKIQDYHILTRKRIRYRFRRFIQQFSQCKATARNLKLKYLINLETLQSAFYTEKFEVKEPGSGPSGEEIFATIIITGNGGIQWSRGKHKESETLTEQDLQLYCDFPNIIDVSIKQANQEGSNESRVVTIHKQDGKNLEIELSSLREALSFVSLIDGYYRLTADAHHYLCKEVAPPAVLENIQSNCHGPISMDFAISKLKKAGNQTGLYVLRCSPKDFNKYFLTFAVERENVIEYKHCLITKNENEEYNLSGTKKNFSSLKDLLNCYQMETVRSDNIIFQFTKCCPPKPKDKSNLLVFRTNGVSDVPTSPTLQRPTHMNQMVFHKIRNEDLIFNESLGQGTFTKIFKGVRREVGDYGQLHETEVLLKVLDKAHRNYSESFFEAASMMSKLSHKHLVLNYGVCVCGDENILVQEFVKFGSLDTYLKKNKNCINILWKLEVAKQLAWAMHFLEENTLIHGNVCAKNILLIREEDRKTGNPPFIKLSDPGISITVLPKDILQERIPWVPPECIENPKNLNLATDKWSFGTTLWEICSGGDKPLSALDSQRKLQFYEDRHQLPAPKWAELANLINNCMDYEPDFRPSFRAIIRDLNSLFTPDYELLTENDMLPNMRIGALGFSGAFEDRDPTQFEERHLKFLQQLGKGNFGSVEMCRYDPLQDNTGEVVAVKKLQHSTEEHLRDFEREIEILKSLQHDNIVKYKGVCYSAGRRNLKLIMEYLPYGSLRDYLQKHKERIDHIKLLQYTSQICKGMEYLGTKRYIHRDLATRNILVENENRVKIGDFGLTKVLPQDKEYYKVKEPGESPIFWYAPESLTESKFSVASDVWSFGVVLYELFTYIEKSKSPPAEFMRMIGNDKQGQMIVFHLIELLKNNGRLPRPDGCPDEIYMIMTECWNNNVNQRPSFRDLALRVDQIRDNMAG
Description: as §1

Sequence of TYK2 (P29597 whole entry, species assumed): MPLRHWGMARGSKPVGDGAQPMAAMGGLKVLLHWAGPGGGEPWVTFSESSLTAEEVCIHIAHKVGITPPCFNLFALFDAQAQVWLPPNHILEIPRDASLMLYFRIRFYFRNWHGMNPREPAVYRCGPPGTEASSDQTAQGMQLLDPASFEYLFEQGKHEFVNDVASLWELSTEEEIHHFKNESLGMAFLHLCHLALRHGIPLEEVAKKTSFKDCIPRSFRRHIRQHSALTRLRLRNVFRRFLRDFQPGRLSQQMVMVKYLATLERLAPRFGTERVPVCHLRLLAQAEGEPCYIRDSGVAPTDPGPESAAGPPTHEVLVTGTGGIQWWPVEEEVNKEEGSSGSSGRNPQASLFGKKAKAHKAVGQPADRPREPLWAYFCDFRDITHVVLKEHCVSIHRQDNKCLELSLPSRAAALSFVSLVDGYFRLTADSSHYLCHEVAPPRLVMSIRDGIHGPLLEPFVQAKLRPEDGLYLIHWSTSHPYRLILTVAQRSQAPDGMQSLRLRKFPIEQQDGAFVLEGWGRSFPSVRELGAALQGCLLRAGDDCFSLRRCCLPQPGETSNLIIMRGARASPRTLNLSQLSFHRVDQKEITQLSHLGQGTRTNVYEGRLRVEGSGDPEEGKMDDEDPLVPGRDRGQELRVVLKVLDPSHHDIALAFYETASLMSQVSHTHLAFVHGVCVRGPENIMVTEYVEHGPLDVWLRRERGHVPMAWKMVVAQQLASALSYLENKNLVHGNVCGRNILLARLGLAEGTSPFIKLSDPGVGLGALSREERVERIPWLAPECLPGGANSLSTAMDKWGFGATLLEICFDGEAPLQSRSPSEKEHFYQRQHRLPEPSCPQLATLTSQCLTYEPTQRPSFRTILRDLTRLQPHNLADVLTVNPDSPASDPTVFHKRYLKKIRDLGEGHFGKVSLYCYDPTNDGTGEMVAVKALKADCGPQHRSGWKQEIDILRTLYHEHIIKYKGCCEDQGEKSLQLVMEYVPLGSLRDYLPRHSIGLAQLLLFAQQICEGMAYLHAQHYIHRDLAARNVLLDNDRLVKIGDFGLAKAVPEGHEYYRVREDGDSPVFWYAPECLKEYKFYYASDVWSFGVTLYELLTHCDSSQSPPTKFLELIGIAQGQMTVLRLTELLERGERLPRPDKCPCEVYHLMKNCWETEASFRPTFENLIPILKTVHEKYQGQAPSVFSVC

SMILES	IC50 [1] [nM]	IC50 [2] [nM]	IC50 [3] [nM]	IC50 [4] [nM]
CC[C@H](Cn1ccc2cnc(Nc3cnn(CC(N)=O)c3)nc21)C(C)C [Example 1, (S)-2-(4-((7-(2-ethyl-3-methylbutyl)-7H-pyrrolo[2,3-d]pyrimidin-2-yl)amino)-1H-pyrazol-1-yl) acetamide]	< 100	< 100	< 100	< 100
CC[C@H](Cn1ccc2cnc(Nc3cnn(CC(=O)N4CCOC4=O)c3)nc21)C(C)C [Example 3, (5)-3-(2-(4-((7-(2-ethyl-3-methylbutyl)-7H-pyrrolo[2,3-d]pyrimidin-2-yl)amino)-1H-pyrazol-1-yl)acetyl) oxazolidin-2-one]	< 100	< 100	< 100	< 100
CCC(CC)Cn1ccc2cnc(Nc3cnn(CC(N)=O)c3)nc21 [Example 7, 2-(4-((7-(2-ethylbutyl)-7H-pyrrolo[2,3-d]pyrimidin-2-yl)amino)-1H-pyrazol-1-yl) acetamide]	< 100	< 100	< 100	< 100
CC[C@@H](Cn1ccc2cnc(Nc3cnn(C4CCNC4=O)c3)nc21)C(C)C (stereo partly shown) [Example 8]	< 100	< 100	< 100	< 100
